Measurements taken from ChEMBL document CHEMBL3124747, “Formosusin A, a novel specific inhibitor of mammalian DNA polymerase β from the fungus Paecilomyces formosus” (Bioorg Med Chem, 2014).
pIC50: −log10 of the molar value.

Legend:
[1] = target: T1, DNA polymerase alpha catalytic subunit (Drosophila melanogaster, UniProt P26019); assay: Inhibition of fruit fly DNA polymerase alpha assessed as inhibition of incorporation of dTTP into poly(dA)/oligo(dT)18 after 60 mins
T1 sequence (P26019 whole entry): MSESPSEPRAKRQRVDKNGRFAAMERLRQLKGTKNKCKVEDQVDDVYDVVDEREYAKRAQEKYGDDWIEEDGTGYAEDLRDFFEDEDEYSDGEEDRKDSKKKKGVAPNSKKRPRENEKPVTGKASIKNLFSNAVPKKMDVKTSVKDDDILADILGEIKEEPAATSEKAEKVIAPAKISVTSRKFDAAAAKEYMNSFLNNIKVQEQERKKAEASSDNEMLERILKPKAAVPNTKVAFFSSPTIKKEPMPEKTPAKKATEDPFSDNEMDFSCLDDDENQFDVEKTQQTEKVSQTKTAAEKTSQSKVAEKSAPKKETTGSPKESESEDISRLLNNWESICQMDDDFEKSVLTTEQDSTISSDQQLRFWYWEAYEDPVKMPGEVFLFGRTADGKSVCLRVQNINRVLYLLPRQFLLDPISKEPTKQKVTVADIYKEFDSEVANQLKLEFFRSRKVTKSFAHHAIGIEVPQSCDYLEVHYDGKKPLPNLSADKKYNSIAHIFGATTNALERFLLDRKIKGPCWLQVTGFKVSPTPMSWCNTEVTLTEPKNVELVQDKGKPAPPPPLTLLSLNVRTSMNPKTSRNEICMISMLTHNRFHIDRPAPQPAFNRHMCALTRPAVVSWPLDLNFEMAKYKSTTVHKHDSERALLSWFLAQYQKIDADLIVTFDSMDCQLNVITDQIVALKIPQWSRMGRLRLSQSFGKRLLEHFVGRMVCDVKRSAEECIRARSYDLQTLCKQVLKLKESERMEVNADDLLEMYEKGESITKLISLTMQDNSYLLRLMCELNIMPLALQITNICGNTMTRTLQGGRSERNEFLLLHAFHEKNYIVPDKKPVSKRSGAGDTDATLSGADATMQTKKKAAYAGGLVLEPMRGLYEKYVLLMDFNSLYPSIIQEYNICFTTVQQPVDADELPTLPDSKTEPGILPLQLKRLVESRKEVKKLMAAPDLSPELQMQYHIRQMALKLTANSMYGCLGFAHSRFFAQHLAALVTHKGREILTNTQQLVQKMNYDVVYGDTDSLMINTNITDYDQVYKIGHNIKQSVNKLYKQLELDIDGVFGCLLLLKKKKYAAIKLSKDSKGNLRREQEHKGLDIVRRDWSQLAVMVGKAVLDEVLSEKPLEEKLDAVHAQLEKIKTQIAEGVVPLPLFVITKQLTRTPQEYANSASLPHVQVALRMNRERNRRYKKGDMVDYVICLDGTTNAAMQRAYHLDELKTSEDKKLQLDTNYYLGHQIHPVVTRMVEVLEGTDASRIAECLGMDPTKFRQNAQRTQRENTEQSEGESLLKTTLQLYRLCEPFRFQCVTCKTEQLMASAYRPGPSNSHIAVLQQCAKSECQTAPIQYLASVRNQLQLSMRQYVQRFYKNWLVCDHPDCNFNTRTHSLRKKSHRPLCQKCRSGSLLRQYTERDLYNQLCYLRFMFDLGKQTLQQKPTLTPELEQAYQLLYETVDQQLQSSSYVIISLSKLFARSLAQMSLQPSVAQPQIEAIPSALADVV

[2] = target: T2, DNA polymerase delta catalytic subunit (Homo sapiens, UniProt P28340); assay: Inhibition of DNA polymerase delta isolated from human MOLT4 cells assessed as inhibition of incorporation of dTTP into poly(dA)/oligo(dT)18 after 60 mins; format: cell-free, MOLT-4
T2 sequence (P28340 whole entry): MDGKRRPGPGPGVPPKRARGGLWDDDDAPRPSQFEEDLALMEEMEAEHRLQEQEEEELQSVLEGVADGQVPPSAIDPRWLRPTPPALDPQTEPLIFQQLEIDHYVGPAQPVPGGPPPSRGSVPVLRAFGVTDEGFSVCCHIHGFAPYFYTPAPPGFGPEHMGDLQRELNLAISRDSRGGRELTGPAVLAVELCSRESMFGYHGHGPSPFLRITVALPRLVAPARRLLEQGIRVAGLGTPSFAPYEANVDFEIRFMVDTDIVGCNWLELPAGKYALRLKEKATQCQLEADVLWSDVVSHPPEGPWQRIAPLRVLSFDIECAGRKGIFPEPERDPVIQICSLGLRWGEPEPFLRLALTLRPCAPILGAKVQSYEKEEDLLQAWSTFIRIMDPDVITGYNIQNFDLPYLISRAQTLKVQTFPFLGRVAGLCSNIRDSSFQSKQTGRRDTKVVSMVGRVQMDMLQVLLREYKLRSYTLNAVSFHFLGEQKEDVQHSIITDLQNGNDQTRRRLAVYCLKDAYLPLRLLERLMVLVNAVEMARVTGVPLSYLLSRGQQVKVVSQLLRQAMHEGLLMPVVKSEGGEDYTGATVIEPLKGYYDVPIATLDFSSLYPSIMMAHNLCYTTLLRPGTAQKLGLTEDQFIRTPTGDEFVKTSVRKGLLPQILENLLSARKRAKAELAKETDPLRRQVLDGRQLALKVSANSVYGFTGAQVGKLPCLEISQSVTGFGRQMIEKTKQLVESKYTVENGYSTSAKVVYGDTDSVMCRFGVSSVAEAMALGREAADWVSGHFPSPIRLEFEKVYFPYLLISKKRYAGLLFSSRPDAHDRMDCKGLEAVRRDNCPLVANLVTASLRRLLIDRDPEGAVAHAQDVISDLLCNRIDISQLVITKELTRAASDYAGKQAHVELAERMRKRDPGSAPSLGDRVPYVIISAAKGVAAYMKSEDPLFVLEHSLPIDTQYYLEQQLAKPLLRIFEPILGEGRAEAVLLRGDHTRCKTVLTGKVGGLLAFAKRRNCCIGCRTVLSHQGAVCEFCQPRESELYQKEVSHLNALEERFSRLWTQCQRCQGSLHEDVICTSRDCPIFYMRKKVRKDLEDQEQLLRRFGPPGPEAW

With `CC(/C=C/CCC(=O)N1CCCC1=O)=C\C1CCCCO1` (stereo not drawn) the pIC50 [1] was < 3.70 and the pIC50 [2] was < 3.70.
With `CCCCC(=O)/C=C(C)/C=C/CCC(=O)N1CCCC1=O` the pIC50 [1] was < 3.70 and the pIC50 [2] was < 3.70.
For `CCCC[C@@H](O)/C=C(C)/C=C/C=C/C(=O)N1CCCC1=O` [PECILOCIN], the pIC50 [1] was < 3.70 and the pIC50 [2] was < 3.70.
`CCCC[C@@H](O)/C=C(C)/C=C/C=C\C(=O)N1CCCC1=O` was tested, and the pIC50 [1] was < 3.70 and the pIC50 [2] was < 3.70.
